In patent US20240158418A1 (C4 Therapeutics, Inc., priority 2021, published 2024) one finds DC50 data, which are given here for twelve compounds.

Test [1] has as its target T1, EGFR L858R-T790M-C797S (Homo sapiens, UniProt P00533, C797S/L858R/T790M).
T1 construct: generated using CRISPR technology to introduce the additional C797S mutation by Horizon Discovery; host or cells: NCI-H1975+CS (CRISPR knock-in of C797S)
The test can be described thus: EGFR degradation, Total EGFR (L858R-specific) HTRF, NCI-H1975+CS. Format: cell-based. The note with it: Table 9B; NCI-H1975 C797S clone, 6 hours, Total EGFR HTRF; read-out: H1975 C797S clone EGFR DC50. From the text: NCI-H1975 (harboring EGFR heterozygous L858R-T790M mutations) and NCI-H3255 (harboring EGFR heterozygous L858R mutation) were purchased from ATCC and NCI, respectively. NCI-H1975+CS (harboring EGFR heterozygous L858R-T790M-C797S mutations) was generated using CRISPR technology to introduce the additional C797S mutation by Horizon Discovery. A431 (harboring EGFR wildtype) was purchased from ATCC. RPMI 1640 no-phenol red medium and fetal bovine serum (FBS) were purchased from Gibco (Grand Island, NY, USA). Cell culture flasks and 384-well microplates were acquired from VWR (Radnor, PA, USA). Phosphorylated (pY1068) EGFR and Total EGFR (using L858R-specific detection antibody and pan-EGFR antibody for EGFR mutant cell lines and EGFR wild-type cell lines, respectively) HTRF assay kits were purchased from Cisbio (Bedford, MA, USA).
Degradation of EGFR protein containing L858R mutation or wild-type was determined based on quantification of FRET signal using a Total EGFR (L858R-specific or pan-EGFR detecting) HTRF assay kit. Phospho-EGFR (pEGFR) inhibition was determined based on quantification of FRET signal using a pY1068 EGFR HTRF assay kit. In separate assay plates, test compounds were added to the 384-well plate from a top concentration of 10 μM with 11 points, half log titration in duplicates. For each assay, 12.5 uL of cells suspended in assay media (RPMI 1640 no-phenol red medium+10% FBS) at cell densities indicated for each cell line in Table 8 below were dispensed using a multi-channel pipette to 384-well low volume white HTRF microplates containing a duplicate concentration range of test compounds and DMSO controls. The plates were kept at 37° C. with 5% CO2 for 6 hours and then incubated with either phospho EGFR or Total EGFR HTRF detection antibodies according to the cell line and EGFR mutant being assayed. Cells treated in the absence of the test compound were the negative control. Positive control was set by wells containing all reagents but no cells. FRET signal was acquired on EnVision™ Multilabel Reader (PerkinElmer, Santa Clara, CA, USA). Compound concentration that achieves 50% degradation and inhibition was reported as DC50 and IC50, respectively.
(In general: TR-FRET usually uses a lanthanide donor and a delayed reading to cut background.)

Test [2] has as its target T2, EGFR L858R-T790M (Homo sapiens, UniProt P00533, L858R/T790M).
T2 construct: NCI-H1975 (harboring EGFR heterozygous L858R-T790M mutations); host or cells: NCI-H1975
The test can be described thus: EGFR degradation, Total EGFR (L858R-specific) HTRF, NCI-H1975. The following applies: Table 9B; NCI-H1975 cells, 6 hours, Total EGFR HTRF; read-out: H1975 EGFR DC50. Format: cell-based. The method, boiled down: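 Cells in RPMI 1640 + 10% FBS treated 6 h at 37°C with compound, 11-point half-log titration from 10 μM top, in duplicate. pY1068 and total EGFR read by HTRF (pan-EGFR antibody for wild-type A431; L858R-specific for mutants); IC50 for phospho inhibition, DC50 for 50% degradation.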

T2 sequence (P00533 25-1210 T790M/L858R): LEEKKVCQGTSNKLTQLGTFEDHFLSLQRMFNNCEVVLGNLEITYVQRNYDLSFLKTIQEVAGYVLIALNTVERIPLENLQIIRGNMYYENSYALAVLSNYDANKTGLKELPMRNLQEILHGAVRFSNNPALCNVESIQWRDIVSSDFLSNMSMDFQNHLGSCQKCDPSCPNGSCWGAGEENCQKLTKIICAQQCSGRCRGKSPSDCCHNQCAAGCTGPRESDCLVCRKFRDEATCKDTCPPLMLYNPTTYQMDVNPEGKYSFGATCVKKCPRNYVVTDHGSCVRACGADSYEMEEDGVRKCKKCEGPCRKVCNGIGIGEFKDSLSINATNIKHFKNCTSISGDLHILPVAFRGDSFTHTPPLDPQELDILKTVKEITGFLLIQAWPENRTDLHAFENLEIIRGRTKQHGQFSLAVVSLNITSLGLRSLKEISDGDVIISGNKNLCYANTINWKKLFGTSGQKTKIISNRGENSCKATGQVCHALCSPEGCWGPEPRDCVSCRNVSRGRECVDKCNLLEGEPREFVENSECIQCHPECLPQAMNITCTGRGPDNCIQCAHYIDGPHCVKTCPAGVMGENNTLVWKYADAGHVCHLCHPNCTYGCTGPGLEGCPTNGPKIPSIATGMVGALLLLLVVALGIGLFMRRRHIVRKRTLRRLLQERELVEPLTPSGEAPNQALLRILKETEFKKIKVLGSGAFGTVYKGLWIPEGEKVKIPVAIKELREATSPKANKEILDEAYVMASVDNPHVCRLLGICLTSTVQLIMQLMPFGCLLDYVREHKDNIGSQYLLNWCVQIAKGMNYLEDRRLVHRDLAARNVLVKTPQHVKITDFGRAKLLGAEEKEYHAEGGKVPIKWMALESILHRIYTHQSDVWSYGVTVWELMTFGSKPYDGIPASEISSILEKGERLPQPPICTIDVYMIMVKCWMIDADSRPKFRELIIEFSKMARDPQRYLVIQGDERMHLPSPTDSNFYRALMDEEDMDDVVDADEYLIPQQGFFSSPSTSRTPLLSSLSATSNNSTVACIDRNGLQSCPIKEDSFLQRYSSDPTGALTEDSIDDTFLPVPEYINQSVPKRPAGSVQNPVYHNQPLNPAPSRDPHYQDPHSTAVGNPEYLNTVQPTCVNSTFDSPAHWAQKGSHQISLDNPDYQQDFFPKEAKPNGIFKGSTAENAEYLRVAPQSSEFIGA
T1 sequence (P00533 25-1210 T790M/C797S/L858R): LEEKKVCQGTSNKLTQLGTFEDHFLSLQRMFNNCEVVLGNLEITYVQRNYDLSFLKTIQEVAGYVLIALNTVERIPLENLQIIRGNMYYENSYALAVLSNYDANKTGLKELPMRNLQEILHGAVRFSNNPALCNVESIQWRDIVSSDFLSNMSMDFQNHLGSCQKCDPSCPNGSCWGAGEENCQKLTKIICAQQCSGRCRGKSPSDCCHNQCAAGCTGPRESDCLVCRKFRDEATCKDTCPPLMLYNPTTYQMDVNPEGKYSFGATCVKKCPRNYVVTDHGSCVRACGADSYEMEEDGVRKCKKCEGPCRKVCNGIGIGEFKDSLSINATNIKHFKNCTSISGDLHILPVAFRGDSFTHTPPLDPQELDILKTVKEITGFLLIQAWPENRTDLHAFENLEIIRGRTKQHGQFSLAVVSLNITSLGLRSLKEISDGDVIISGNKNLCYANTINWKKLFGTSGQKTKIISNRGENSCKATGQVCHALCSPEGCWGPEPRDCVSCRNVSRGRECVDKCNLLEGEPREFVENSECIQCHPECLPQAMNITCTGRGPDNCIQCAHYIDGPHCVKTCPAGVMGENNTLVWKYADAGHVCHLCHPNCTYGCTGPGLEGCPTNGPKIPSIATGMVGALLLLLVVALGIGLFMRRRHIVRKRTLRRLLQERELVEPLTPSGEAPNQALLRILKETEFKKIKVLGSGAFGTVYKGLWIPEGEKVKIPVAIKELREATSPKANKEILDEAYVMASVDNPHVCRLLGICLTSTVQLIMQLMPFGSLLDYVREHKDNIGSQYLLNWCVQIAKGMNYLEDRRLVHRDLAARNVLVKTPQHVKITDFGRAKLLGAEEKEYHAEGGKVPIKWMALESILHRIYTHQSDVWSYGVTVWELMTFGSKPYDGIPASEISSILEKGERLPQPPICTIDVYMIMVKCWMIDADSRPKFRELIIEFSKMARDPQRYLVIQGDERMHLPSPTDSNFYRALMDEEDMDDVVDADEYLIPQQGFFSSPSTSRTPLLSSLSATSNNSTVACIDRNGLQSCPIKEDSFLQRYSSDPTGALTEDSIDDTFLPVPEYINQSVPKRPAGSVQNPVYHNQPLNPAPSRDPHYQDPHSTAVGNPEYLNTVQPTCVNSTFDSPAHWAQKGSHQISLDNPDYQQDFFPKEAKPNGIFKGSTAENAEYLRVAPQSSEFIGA

Consider `O=C1CCC(Nc2ccc(N3CCC(O)(CC(=O)N4CCC(NC(=O)c5ccc(C#Cc6cc(F)c7c(c6)C(=O)N(C(C(=O)Nc6nccs6)c6ncn8c6CCC8)C7)cn5)CC4)CC3)c(F)c2)C(=O)N1` (stereo not drawn) [Compound 96, 5-((2-(1-(6,7-dihydro-5H-pyrrolo[1,2-c]imidazol-1-yl)-2-oxo-2-(thiazol-2-ylamino)ethyl)-7-fluoro-3-oxoisoindolin-5-yl)ethynyl)-N-(1-(2-(1-(4-((2,6-dioxopiperidin-3-yl)amino)-2-fluorophenyl)-4-hydroxypiperidin-4-yl)acetyl)piperidin-4-yl)picolinamide], for which the DC50 in test [1] and in test [2] was below 50 nM throughout.

With `Cn1nc(N2CCC(=O)NC2=O)c2ccc(N3CCN(CC(=O)N4CCN(c5ccc(-c6cc(F)c7c(c6)C(=O)N(C(C(=O)Nc6nccs6)c6ncn8c6CCC8)C7)cc5)CC4)CC3)cc21` (stereo not drawn) [Compound 92, 2-(6,7-dihydro-5H-pyrrolo[1,2-c]imidazol-1-yl)-2-(6-(4-(4-(2-(4-(3-(2,4-dioxotetrahydropyrimidin-1(2H)-yl)-1-methyl-1H-indazol-6-yl)piperazin-1-yl)acetyl)piperazin-1-yl)phenyl)-4-fluoro-1-oxoisoindolin-2-yl)-N-(thiazol-2-yl)acetamide], the DC50 in test [1] and in test [2] was below 50 nM in each case. As to `Cn1nc(N2CCC(=O)NC2=O)c2ccc(C3CCN(CC(=O)N4CC5(C4)CN(c4ccc(-c6cc(F)c7c(c6)C(=O)N(C(C(=O)Nc6nccs6)c6ncn8c6CCC8)C7)cn4)C5)CC3(F)F)cc21` (stereo not drawn) [Compound 87, 2-(6,7-dihydro-5H-pyrrolo[1,2-c]imidazol-1-yl)-2-(6-(6-(6-(2-(4-(3-(2,4-dioxotetrahydropyrimidin-1(2H)-yl)-1-methyl-1H-indazol-6-yl)-3,3-difluoropiperidin-1-yl)acetyl)-2,6-diazaspiro[3.3]heptan-2-yl)pyridin-3-yl)-4-fluoro-1-oxoisoindolin-2-yl)-N-(thiazol-2-yl)acetamide], the DC50 in test [1] and in test [2] was below 50 nM in each case. Take `O=C1CC[C@H](Nc2ccc(C3CCN(CC(=O)N4CC5(C4)CN(c4ccc(-c6ccc7cn(C(C(=O)Nc8nccs8)c8ncn9c8CCC9)nc7c6F)cn4)C5)CC3)c(F)c2)C(=O)N1` (stereo partly drawn) [Compound 69, 2-(6,7-dihydro-5H-pyrrolo[1,2-c]imidazol-1-yl)-2-[6-[6-[2-[2-[4-[4-[[(3S)-2,6-dioxo-3-piperidyl]amino]-2-fluoro-phenyl]-1-piperidyl]acetyl]-2,6-diazaspiro[3.3]heptan-6-yl]-3-pyridyl]-7-fluoro-indazol-2-yl]-N-thiazol-2-yl-acetamide]: the DC50 in test [1] and in test [2] was below 50 nM each time. In the case of `Cn1nc(N2CCC(=O)NC2=O)c2ccc(C3CCN(CC(=O)N4CC5(C4)CN(c4ccc(-c6cc(F)c7c(c6)C(=O)N(C(C(=O)Nc6nccs6)c6ncn8c6CCC8)C7)cc4)C5)C4(CC4)C3)cc21` (stereo not drawn) [Compound 154, 2-(6,7-dihydro-5H-pyrrolo[1,2-c]imidazol-1-yl)-2-[6-[4-[2-[2-[7-[3-(2,4-dioxohexahydropyrimidin-1-yl)-1-methyl-indazol-6-yl]-4-azaspiro[2.5]octan-4-yl]acetyl]-2,6-diazaspiro[3.3]heptan-6-yl]phenyl]-4-fluoro-1-oxo-isoindolin-2-yl]-N-thiazol-2-yl-acetamide], the DC50 in test [1] and in test [2] was below 50 nM each time. Consider `Cn1nc(N2CCC(=O)NC2=O)c2ccc(C3CCN(CC(=O)N4CC5(C4)CN(c4ccc(-c6ccc7cn(C(C(=O)Nc8nccs8)c8ncn9c8CCC9)nc7c6F)cn4)C5)CC3(F)F)cc21` (stereo not drawn) [Compound 70, 2-(6,7-dihydro-5H-pyrrolo[1,2-c]imidazol-1-yl)-2-[6-[6-[2-[2-[4-[3-(2,4-dioxohexahydropyrimidin-1-yl)-1-methyl-indazol-6-yl]-3,3-difluoro-1-piperidyl]acetyl]-2,6-diazaspiro[3.3]heptan-6-yl]-3-pyridyl]-7-fluoro-indazol-2-yl]-N-thiazol-2-yl-acetamide], for which the 50% degradation concentration (DC50) in test [1] and in test [2] was below 50 nM in each case. As to `O=C1CC[C@H](Nc2ccc(C3CCN(C(=O)CC4(O)CCN(c5ccc(-c6ccc7cn(C(C(=O)Nc8nccs8)c8ncn9c8CCC9)nc7c6F)cc5)CC4)CC3)c(F)c2)C(=O)N1` (stereo partly drawn) [Compound 149, 2-(6,7-dihydro-5H-pyrrolo[1,2-c]imidazol-1-yl)-2-[6-[4-[4-[2-[4-[4-[[(3S)-2,6-dioxo-3-piperidyl]amino]-2-fluoro-phenyl]-1-piperidyl]-2-oxo-ethyl]-4-hydroxy-1-piperidyl]phenyl]-7-fluoro-indazol-2-yl]-N-thiazol-2-yl-acetamide], the DC50 in test [1] is below 50 nM. `Cn1nc(N2CCC(=O)NC2=O)c2ccc(C3CCN(CC(=O)N4CCCN(c5ccc(-c6cc(F)c7c(c6)C(=O)N(C(C(=O)Nc6nccs6)c6ncn8c6CCC8)C7)cc5)CC4)CC3(F)F)cc21` (stereo not drawn) [Compound 91, 2-(6,7-dihydro-5H-pyrrolo[1,2-c]imidazol-1-yl)-2-(6-(4-(4-(2-(4-(3-(2,4-dioxotetrahydropyrimidin-1(2H)-yl)-1-methyl-1H-indazol-6-yl)-3,3-difluoropiperidin-1-yl)acetyl)-1,4-diazepan-1-yl)phenyl)-4-fluoro-1-oxoisoindolin-2-yl)-N-(thiazol-2-yl)acetamide]: the DC50 was 50 to 150 nM in test [1] and below 50 nM in test [2]. For the compound `Cn1nc(N2CCC(=O)NC2=O)c2ccc(C3CCN(CC(=O)N4CCC(NC(=O)c5ccc(C#Cc6cc(F)c7c(c6)C(=O)N(C(C(=O)Nc6nccs6)c6ncn8c6CCC8)C7)cn5)CC4)CC3(F)F)cc21` (stereo not drawn) [Compound 88, 5-[2-[2-[1-(6,7-dihydro-5H-pyrrolo[1,2-c]imidazol-1-yl)-2-oxo-2-(thiazol-2-ylamino)ethyl]-7-fluoro-3-oxo-isoindolin-5-yl]ethynyl]-N-[1-[2-[4-[3-(2,4-dioxohexahydropyrimidin-1-yl)-1-methyl-indazol-6-yl]-3,3-difluoro-1-piperidyl]acetyl]-4-piperidyl]pyridine-2-carboxamide], the DC50 in test [1] and in test [2] was below 50 nM throughout. Turning to `C[C@@H]1CC(O)(CC(=O)N2CC3(C2)CN(c2ccc(-c4cc(F)c5cn(C(C(=O)Nc6nccs6)c6ncn7c6CCC7)nc5c4)cc2)C3)C[C@H](C)N1c1ccc(NC2CCC(=O)NC2=O)cc1F` (stereo partly drawn) [Compound 148, 2-(6,7-dihydro-5H-pyrrolo[1,2-c]imidazol-1-yl)-2-[6-[4-[2-[2-[(2s,6r)-1-[4-[(2,6-dioxo-3-piperidyl)amino]-2-fluoro-phenyl]-4-hydroxy-2,6-dimethyl-4-piperidyl]acetyl]-2,6-diazaspiro[3.3]heptan-6-yl]phenyl]-4-fluoro-indazol-2-yl]-N-thiazol-2-yl-acetamide], the DC50 in test [1] is below 50 nM.

On to `O=C1CC[C@H](Nc2ccc(C3CCN(C(=O)CC4(O)CCN(c5ccc(-c6cc(F)c7cn(C(C(=O)Nc8nccs8)c8ncn9c8CCC9)nc7c6)cn5)CC4)CC3)c(F)c2)C(=O)N1` (stereo partly drawn) [Compound 150, 2-(6,7-dihydro-5H-pyrrolo[1,2-c]imidazol-1-yl)-2-[6-[6-[4-[2-[4-[4-[[(3S)-2,6-dioxo-3-piperidyl]amino]-2-fluoro-phenyl]-1-piperidyl]-2-oxo-ethyl]-4-hydroxy-1-piperidyl]-3-pyridyl]-4-fluoro-indazol-2-yl]-N-thiazol-2-yl-acetamide], for which the DC50 in test [1] was below 50 nM.

For the compound `O=C1CCC(Nc2ccc(N3CCC(O)(CC(=O)N4CC5(C4)CN(c4ccc(-c6cc(F)c7c(c6)C(=O)N(C(C(=O)Nc6ccccn6)c6ncn8c6CCC8)C7)cc4)C5)CC3)c(F)c2)C(=O)N1` (stereo not drawn) [Compound 99, 2-(6,7-dihydro-5H-pyrrolo[1,2-c]imidazol-1-yl)-2-[6-[4-[2-[2-[1-[4-[(2,6-dioxo-3-piperidyl)amino]-2-fluoro-phenyl]-4-hydroxy-4-piperidyl]acetyl]-2,6-diazaspiro[3.3]heptan-6-yl]phenyl]-4-fluoro-1-oxo-isoindolin-2-yl]-N-(2-pyridyl)acetamide], the DC50 in test [1] and in test [2] was below 50 nM each time.

As a reminder, the DC50 is the concentration at which degradation of the target reaches its halfway point.
